Among the data in patent publication US20070219234A1, “Thienopyridine Derivatives” (priority 2004, published 2007) are melting point values, retold here.

Usually melting point stands for the temperature, or range, at which the solid turns liquid.

Bounds are passed on as bounds.

`Cl.Cl.NC(=O)c1sc2nccc(N3CCCNCC3)c2c1N` gave a melting point of over 295 °C.

In the case of `Cl.Cl.NC(=O)c1sc2nccc(N3CCNCC3)c2c1N`, the melting point fell in the range of 270 to 280 °C.

For the compound `NC(=O)c1sc2nccc(N3CC[C@@H]4CCCC[C@H]4C3)c2c1N` (relative stereo) [Example 28, 3-amino-4-(trans-perhydroisoquinolin-2-yl)thieno[2,3-b]pyridine-2-carboxamide], the melting point is 285 to 288 °C.

`CCN(CC)c1ccnc2sc(C(N)=O)c(N)c12` [Example 2, 3-amino-4-(diethylamino)thieno[2,3-b]pyridine-2-carboxamide]: the melting point was 127 to 129 °C.

Consider `Cc1cc(N(C)C)c2c(N)c(C(N)=O)sc2n1` [Example 3, 3-amino-4-(dimethylamino)-6-methylthieno[2,3-b]pyridine-2-carboxamide], for which the melting point lay within 167 to 170 °C.

The compound `CCCNc1ccnc2sc(C(N)=O)c(N)c12` [Example 4, 3-amino-4-(propylamino)thieno[2,3-b]pyridine-2-carboxamide] had a melting point of 214 to 215 °C.

The compound `CC(C)CNc1ccnc2sc(C(N)=O)c(N)c12` [Example 5, 3-amino-4-(isobutylamino)thieno[2,3-b]pyridine-2-carboxamide] registered a melting point of 117 to 119 °C.

`CC(C)(C)CNc1ccnc2sc(C(N)=O)c(N)c12` [Example 6, 3-amino-4-(neopentylamino)thieno[2,3-b]pyridine-2-carboxamide]: the melting point fell in the range of 238 to 240 °C.

`NC(=O)c1sc2nccc(NCc3ccccc3)c2c1N` [Example 7, 3-amino-4-(benzylamino)thieno[2,3-b]pyridine-2-carboxamide] gave a melting point of 260 to 262 °C.

`NC(=O)c1sc2nccc(NCCCc3ccccc3)c2c1N` [Example 9, 3-amino-4-[(3-phenylpropyl)amino]thieno[2,3-b]pyridine-2-carboxamide] came in with a melting point of 232 to 234 °C.

`NC(=O)c1sc2nccc(NC3CCCCC3)c2c1N` [Example 11, 3-amino-4-(cyclohexylamino)thieno[2,3-b]pyridine-2-carboxamide] came in with a melting point of 244 to 247 °C.

Consider `NC(=O)c1sc2nccc(NC3CCCCCC3)c2c1N` [Example 12, 3-amino-4-(cycloheptylamino)thieno[2,3-b]pyridine-2-carboxamide], for which the melting point is 206 to 208 °C.

As for `NC(=O)c1sc2nccc(N3CCCC3)c2c1N` [Example 13, 3-amino-4-pyrrolidin-1-ylthieno[2,3-b]pyridine-2-carboxamide], the melting point lay within 275 to 283 °C.

As to `CC1CCN(c2ccnc3sc(C(N)=O)c(N)c23)CC1` [Example 15, 3-amino-4-(4-methylpiperidin-1-yl)thieno[2,3-b]pyridine-2-carboxamide], the melting point was 252 to 254 °C.

In turn, `NC(=O)c1sc2nccc(N3CCC(Cc4ccccc4)CC3)c2c1N` [Example 18, 3-amino-4-(4-benzylpiperidin-1-yl)thieno[2,3-b]pyridine-2-carboxamide] registered a melting point of 220 to 221 °C.

`NC(=O)c1sc2nccc(N3CCC(O)CC3)c2c1N` [Example 19, 3-amino-4-(4-hydroxypiperidin-1-yl)thieno[2,3-b]pyridine-2-carboxamide] gave a melting point of 239 to 241 °C.

Compound `CC(=O)OC1CCN(c2ccnc3sc(C(N)=O)c(N)c23)CC1` [Example 20, 3-amino-4-(4-acetoxypiperidin-1-yl)thieno[2,3-b]pyridine-2-carboxamide] came in with a melting point of 231 to 235 °C.

Turning to `NC(=O)c1sc2nccc(N3CC=C(c4ccccc4)CC3)c2c1N` [Example 21, 3-amino-4-(4-phenyl-3,6-dihydropyridin-1(2H)-yl)thieno[2,3-b]pyridine-2-carboxamide], the melting point was 235 °C (dec.).

The compound `NC(=O)c1sc2nccc(N3CCOCC3)c2c1N` [Example 22, 3-amino-4-morpholin-4-ylthieno[2,3-b]pyridine-2-carboxamide] yielded a melting point of 232 to 234 °C.

Compound `C[C@@H]1CN(c2ccnc3sc(C(N)=O)c(N)c23)C[C@H](C)O1` [Example 23, 3-amino-4-(cis-2,6-dimethylmorpholin-4-yl)thieno[2,3-b]pyridine-2-carboxamide] had a melting point of 242 to 244 °C.

In turn, `NC(=O)c1sc2nccc(N3CCCCCC3)c2c1N` [Example 25, 3-amino-4-azepan-1-ylthieno[2,3-b]pyridine-2-carboxamide] had a melting point of 219 to 221 °C.

On to `NC(=O)c1sc2nccc(N3CCCCCCC3)c2c1N` [Example 26, 3-amino-4-azocan-1-ylthieno[2,3-b]pyridine-2-carboxamide], for which the melting point is 222 to 224 °C.

In turn, `NC(=O)c1sc2nccc(N3CCc4ccccc4C3)c2c1N` [Example 27, 3-amino-4-(3,4-dihydroisoquinoline-2(1H)-yl)thieno[2,3-b]pyridine-2-carboxamide] had a melting point of 244 to 245 °C.

Compound `NC(=O)c1sc2nccc(N3CCCOCC3)c2c1N` [Example 30, 3-amino-4-(1,4-oxazepan-4-yl)thieno[2,3-b]pyridine-2-carboxamide] yielded a melting point of 175 to 176 °C.

`NC(=O)c1sc2nccc(N3CCC(c4ccccc4)CC3)c2c1N` [Example 31, 3-amino-4-(4-phenylpiperidin-1-yl)thieno[2,3-b]pyridine-2-carboxamide] had a melting point of 226 to 233 °C.

Turning to `NC(=O)c1sc2nccc(N3CC[S+]([O-])CC3)c2c1N` [Example 32, 3-amino-4-(1-oxothiomorpholine-4-yl)thieno[2,3-b]pyridine-2-carboxamide], the melting point is 165 to 172 °C.

Take `NC(=O)c1sc2nccc(N3CCCSCC3)c2c1N` [Example 33, 3-amino-4-(1,4-thiazepan-4-yl)thieno[2,3-b]pyridine-2-carboxamide]: the melting point lay in the range of 171 to 174 °C.

As for `NC(=O)c1sc2nccc(N3CCC[S+]([O-])CC3)c2c1N` (stereo not drawn) [Example 34, 3-amino-4-(1-oxo-1,4-thiazepan-4-yl)thieno[2,3-b]pyridine-2-carboxamide], the melting point was 111 to 119 °C.

The compound `NC(=O)c1sc2nccc(N3CCCC(c4ccccc4)C3)c2c1N` (stereo not drawn) [Example 35, 3-amino-4-(3-phenylpiperidin-1-yl)thieno[2,3-b]pyridine-2-carboxamide] returned a melting point of 267 to 269 °C.

In the case of `NC(=O)c1sc2nccc(N3CCCC(O)C3)c2c1N` (stereo not drawn) [Example 36, 3-amino-4-(3-hydroxypiperidin-1-yl)thieno[2,3-b]pyridine-2-carboxamide], the melting point was 208 to 211 °C.

Consider `CC(C)(C)OC(=O)N1CCN(c2ccnc3sc(C(N)=O)c(N)c23)CC1` [Example 37, tert-butyl 4-[3-amino-2-(aminocarbonyl)thieno[2,3-b]pyridin-4-yl]piperazine-1-carboxylate], for which the melting point is 198 to 203 °C.

`CN1CCN(c2ccnc3sc(C(N)=O)c(N)c23)CC1` [Example 39, 3-amino-4-(4-methylpiperazin-1-yl)thieno[2,3-b]pyridine-2-carboxamide] gave a melting point of 260 to 263 °C.

`CCN1CCN(c2ccnc3sc(C(N)=O)c(N)c23)CC1` [Example 40, 3-amino-4-(4-ethylpiperazin-1-yl)thieno[2,3-b]pyridine-2-carboxamide] showed a melting point of 218 to 219 °C.
